In patent US6069176A, “Phenylethanolamine compounds useful as β 3 agonists, process for producing the same, and intermediates in the production of the same” (Mitsubishi-Tokyo Pharmaceuticals, Inc., priority 1995, dated 2000):
Where a name gives a salt, the structure may show the parent alone. Read-outs that look alike come from different tables or passages of the source.

Tests used:
[1] = system: isolated rat bladder detrusor muscle; test: [Test 5] relaxing effect on isolated rat bladder detrusor muscle (smooth muscle); format: cell-based; conditions: read-out: EC50 (relaxing effect on isolated rat bladder detrusor muscle)
Description: [Test 5] Examination of relaxing effect on isolated rat bladder detrusor muscle (smooth muscle)
Rat bladders were isolated by a common method for preparation of strips. The isolated bladder strips were mounted in an organ bath filled with Krebs' solution kept at 37° C., under mixed gas aeration (95% O2 +5% CO2) and subjected to an initial tension of 1.0 g. Each test compound was cumulatively added to the organ bath at intervals of 10 minutes.

[2] = biological target: β2 adrenergic receptor (Cavia porcellus, UniProt Q8K4Z4); test: [Test 3] relaxing effect on isolated guinea pig tracheal muscle (β2 adrenergic receptor stimulating effect); format: cell-based
[3] = biological target: T1, β3 adrenergic receptor (Rattus norvegicus, UniProt P26255); test: [Test 1] spontaneous locomotion-suppressing effect on isolated rat colon (β3 adrenergic receptor stimulating effect); format: cell-based
[4] = system: rat colon; test: [Test 6] suppressing effect on spontaneous locomotion of anesthetized rat colon (in vivo test); parameters: species or system rat (male Wistar rats); conditions: iv, 10 min, read-out: ED50 (suppressing effect on spontaneous locomotion of anesthetized rat colon)
Description: [Test 6] […] The lead wire of the force transducer was connected to a multipurpose preamp through a bridge box (FB-01, Star Medical), and the spontaneous locomotion of the colon was recorded with a Thermal Array Recorder (Nihon Koden), upon which the total degrees of contraction over 10 minutes were compared before and after bolus administration.

[5] = biological target: T2, β1 adrenergic receptor (Cavia porcellus, UniProt H0W3H1); test: [Test 4] heart beat increasing effect on isolated guinea pig right atrium (β1 adrenergic receptor stimulating effect); format: cell-based; conditions: read-out: EC10 (heart beat increasing effect on isolated guinea pig right atrium)
T2 construct: functional heart beat increase (chronotropy)

[6] = treatment for urinary incontinence; cited from earlier work
[7] = system: bladder detrusor muscle; conditions: The autonomic nervous system, 26, 380-387 (1989); cited from earlier work
[8] = system: rat confinement stress-induced diarrhea models; test: [Test 7] suppression of diarrhea in rat confinement stress-induced diarrhea models; format: in vivo, rat (male Wistar rats); conditions: po, 1.0 mg/kg; feces observed over 3 hours
Description: Examination of suppressing effect on diarrhea using rat confinement stress-induced diarrhea models
The nature of the feces excreted over a total of 3 hours was observed every 30 minutes, and the results were recorded as the diarrhea coefficient (0: no fecal excretion, 1: solid feces, 2: soft feces, 3: mild diarrhea, 4: muddy feces). Here, cases with a diarrhea coefficient score of 3 or higher, i.e. from feces which left a stain on filter paper to muddy feces, were judged as diarrhea, and the rate of diarrhea suppression was calculated (Table 6).

[9] = Drugs of the Future, 18, 529-549 (1993); cited from earlier work
[10] = system: β3 adrenergic receptors; conditions: prior art; cited from earlier work
[11] = biological target: T1, β3 adrenergic receptor; test: cell-based; parameters: Isolated rat fat was used to examine the effect on fat decomposition; from tissue; host or cells: adipocytes from fat around the testicles of male SD rats; species or system rat (male SD rats); conditions: rat adipocyte suspension, 30 minutes at 30° C., glycerol content; read-out: lypolytic activity (EC50 value)
[12] = system: rat bladder; test: [Test 9] bladder contraction induced by electrical stimulation of peripheral end of pelvic nerve in anesthetized rat; format: in vivo; conditions: through femoral vein; 20 Hz, 0.3 msec, 5V; urethane and α-chloralose anesthesia
Text: [Test 9] Effect on bladder contraction induced by electrical stimulation of peripheral end of pelvic nerve in anesthetized rat
After median incision in the abdomen of rats anesthetized with urethane and α-chloralose, the ureters on both sides were ligated and cut on the kidney side, and pledgets were placed on the cut sections to absorb the urine. Next, the hypogastric nerves on both sides were transected and the base of the penis were ligated at close the urethra. A small hole was opened in the top of bladder and, after inserting one end of a polyethylene tube, ligated. The other end of the polyethylene tube was connected to a pressure transducer (TP 400, Nihon Koden) to measure the intravesical pressure.
Physiological saline was injected into the bladder to obtain intravesical pressure at a 100 mm H2 O. The change of the intervesical pressure was recorded with a heat recorder (WT 685G, Nihon Koden). After ablating the left pelvic nerves from the fatty tissue around the bladder and cutting the central section, a platinum electrode was implanted at the peripheral end of the pelvic nerves. An electrical stimulation apparatus (SEN-3301, Nihon Koden) was used for generating a rectangular wave electrical stimulation (20 Hz, 0.3 msec, 5V) for 5 seconds every 5 minutes. […]

[13] = system: rat colon; conditions: Drugs of the Future, 18, 529-549 (1993); cited from earlier work
[14] = 10% augmentation of heart beats, 37° C.

T2 sequence (H0W3H1 1-470): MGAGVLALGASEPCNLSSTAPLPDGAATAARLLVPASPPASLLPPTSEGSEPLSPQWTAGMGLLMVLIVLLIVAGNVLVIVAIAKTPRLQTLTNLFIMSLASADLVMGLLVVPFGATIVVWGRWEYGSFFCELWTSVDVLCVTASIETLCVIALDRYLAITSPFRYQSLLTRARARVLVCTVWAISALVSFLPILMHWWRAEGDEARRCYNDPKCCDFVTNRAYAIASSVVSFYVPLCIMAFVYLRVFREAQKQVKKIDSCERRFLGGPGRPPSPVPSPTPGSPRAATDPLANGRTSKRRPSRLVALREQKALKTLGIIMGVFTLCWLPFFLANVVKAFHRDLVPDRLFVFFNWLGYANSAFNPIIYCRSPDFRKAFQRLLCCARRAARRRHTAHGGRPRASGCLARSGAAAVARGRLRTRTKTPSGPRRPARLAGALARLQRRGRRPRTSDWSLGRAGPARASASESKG
T1 sequence (P26255 whole entry): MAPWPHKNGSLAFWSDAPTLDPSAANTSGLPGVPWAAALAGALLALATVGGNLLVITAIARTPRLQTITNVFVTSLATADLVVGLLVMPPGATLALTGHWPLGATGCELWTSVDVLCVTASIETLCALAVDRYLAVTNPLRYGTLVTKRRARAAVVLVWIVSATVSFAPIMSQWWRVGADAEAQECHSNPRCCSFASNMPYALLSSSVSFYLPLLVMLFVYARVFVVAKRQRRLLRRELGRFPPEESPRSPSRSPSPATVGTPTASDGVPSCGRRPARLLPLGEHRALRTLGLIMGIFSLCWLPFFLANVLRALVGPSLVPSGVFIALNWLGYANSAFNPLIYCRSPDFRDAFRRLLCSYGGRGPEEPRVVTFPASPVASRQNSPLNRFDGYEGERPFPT
Chain of β2 adrenergic receptor (Q8K4Z4 whole entry): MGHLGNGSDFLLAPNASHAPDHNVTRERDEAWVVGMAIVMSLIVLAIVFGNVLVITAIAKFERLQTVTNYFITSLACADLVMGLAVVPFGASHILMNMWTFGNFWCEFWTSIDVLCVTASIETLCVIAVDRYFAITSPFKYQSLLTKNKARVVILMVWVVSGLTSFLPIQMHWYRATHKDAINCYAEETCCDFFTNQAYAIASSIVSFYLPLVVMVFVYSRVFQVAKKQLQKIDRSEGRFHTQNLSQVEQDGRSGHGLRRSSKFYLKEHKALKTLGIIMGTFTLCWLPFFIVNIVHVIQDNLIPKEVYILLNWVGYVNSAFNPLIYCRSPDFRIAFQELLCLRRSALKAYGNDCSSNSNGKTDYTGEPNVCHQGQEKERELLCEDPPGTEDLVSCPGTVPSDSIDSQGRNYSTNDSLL

EC50 [2] [nM]	EC50 [3] [nM]	EC10 [5, 14] [nM]	Compound	diarrhea suppression rate [8] [%]	also measured
1100	15		CCOC(=O)COc1ccc(C2CCCC(NC[C@H](O)c3cccc(Cl)c3)C2)cc1 (stereo partly drawn) [Example 28, (1R)-1-(3-Chlorophenyl)-2-[3-(4-ethoxycarbonylmethoxyphenyl)cyclohexylamino]ethanol hydrochloride]		
790	3.7	> 30000	CCOC(=O)COc1cccc(C2CCCC(NC[C@H](O)c3cccc(Cl)c3)C2)c1 (stereo partly drawn) [Example 11, (1R)-1-(3-Chlorophenyl)-2-[3-(3-ethoxycarbonylmethoxyphenyl)cyclohexylamino]ethanol hydrochloride]		ED50 [4]: 0.23 µg/kg
820	90	> 30000	CCOC(=O)COc1ccc(C2CCC(NC[C@H](O)c3cccc(Cl)c3)C2)cc1 (stereo partly drawn) [Example 69, (2R)-Ethyl (4-[3-[2-(3-chlorophenyl)-2-hydroxyethylamino]cyclopentyl]phenoxy)acetate]		
15000	12	> 30000	O=C(O)COc1ccc(C2CCCC(NC[C@H](O)c3cccc(Cl)c3)C2)cc1 (single isomer, unassigned) [Example 32, acetate]		
820	3.8	> 30000	CCOC(=O)COc1ccccc1C1CCCC(NC[C@H](O)c2cccc(Cl)c2)C1 (stereo partly drawn) [Example 43, (1R)-(3-Chlorophenyl)-2-[3-(2-ethoxycarbonylmethoxyphenyl)cyclohexylamino]ethanol hydrochloride]	50	
14000	7.7	> 30000	CCOC(=O)COc1ccc2c(c1)CC(NCC(O)c1cccc(Cl)c1)CC2.Cl (racemic) [SR 58611A, (RS)-N-(7-ethoxycarbonylmethoxy-1,2,3,4-tetrahydronaphth-2-yl)-2-(3-chlorophenyl)-2-hydroxyethanamine hydrochloride, reference compound]	20	ED50 [4]: 12 µg/kg; selective action on β3 adrenergic receptors [10]: act selectively on β3 adrenergic receptors; suppressing effect on spontaneous locomotion of rat colon [13]: potent suppressing effect on spontaneous locomotion of rat colon

More lines, now with the values behind:

Compound	EC50 [2] [nM]	EC50 [3] [nM]	EC10 [5, 14] [nM]	diarrhea suppression rate [8] [%]	also measured
CC(C)NCC(O)c1ccc(O)c(O)c1 (stereo not shown) [Isoproterenol]					EC50 [1]: 10 nM
CCOC(=O)C1(C(=O)OCC)Oc2ccc(C3CCCC(NC[C@H](O)c4cccc(Cl)c4)C3)cc2O1 (stereo partly drawn) [Example 60, (2R)-Diethyl 5-[3-[2-(3-chlorophenyl)-2-hydroxyethylamino]cyclohexyl]benzo-1,3-dioxol-2,2-dicarboxylate]		42			
CC(C)(C)NCC(O)c1cc(Cl)c(N)c(Cl)c1 (stereo not shown) [Clenbuterol]					side-effects [6]: side-effects including finger tremor and palpitation; relaxing effect on the bladder detrusor muscle [7]: relaxing effect on the bladder detrusor muscle; EC50 [1]: 31 nM
O=C([O-])COc1ccccc1C1CCCC(NC[C@H](O)c2cccc(Cl)c2)C1.[Na+] (stereo partly shown)	890	3.3		30	EC10 [5]: > 30000 nM
COC(=O)COc1ccc(C[C@@H](C)NC[C@H](O)c2cccc(Cl)c2)cc1 (relative stereo) [BRL35135, (R*R*)-(±)-[4-[2-[2-(3-chlorophenyl)-2-hydroxyethylamino]propyl]phenoxy]acetic acid methyl ester hydrobromide salt]					lypolytic and hypoglycemic effect [9]: lypolytic and hypoglycemic effect; selective action on β3 adrenergic receptors [10]: act selectively on β3 adrenergic receptors
CCOC(=O)COc1cccc(C2CCCC(NC[C@H](O)c3cccc(Cl)c3)C2)c1 (stereo partly drawn) [Example 14, (1R)-1-(3-Chlorophenyl)-2-[3-(3-ethoxycarbonylmethoxyphenyl)cyclohexylamino]ethanol]				50	
O=C([O-])COc1cccc(C2CCCC(NC[C@H](O)c3cccc(Cl)c3)C2)c1.[Na+] (stereo partly shown)	4200	1.4		60	EC50 [11]: 21 nM; ED50 [4]: 0.27 µg/kg; EC10 [5]: > 30000 nM; EC50 [1]: 16 nM; suppression of bladder contraction (FIG. 2) [12]: suppressed bladder contraction at a lower dose than Clenbuterol hydrochloride
